Assay results reported in article PMC7321161, “The Intriguing Effects of Substituents in the N-Phenethyl Moiety of Norhydromorphone: A Bifunctional Opioid from a Set of “Tail Wags Dog” Experiments” (Molecules, 2020).
Where “and” joins values, the source holds several entries; their conditions need not be identical. Equal values may be shown once. Entries after “also recorded” stand apart in the source; their conditions may differ. Read-outs that look alike come from different tables or passages of the source.

Key:
μ-opioid receptor (MOR) = molecular target: T1, μ-opioid receptor (MOR) (Rattus norvegicus, UniProt P33535); assay: Opioid receptor binding, μ sites ([3H]DAMGO), rat brain homogenate
T1 construct: Frozen whole rat brains excluding cerebellum were thawed on ice; from tissue; host or cells: whole rat brain excluding cerebellum, membrane homogenate

δ-opioid receptor (DOR) = molecular target: T2, δ-opioid receptor (DOR) (Rattus norvegicus, UniProt P33533); assay: Opioid receptor binding, δ sites ([3H]DADLE), rat brain homogenate
T2 construct: Frozen whole rat brains excluding cerebellum were thawed on ice; from tissue; host or cells: whole rat brain excluding cerebellum, membrane homogenate

κ-opioid receptor (KOR) = molecular target: T3, κ-opioid receptor (KOR) (Rattus norvegicus, UniProt P34975); assay: Opioid receptor binding, κ sites ([3H]U69,593), rat brain homogenate; conditions: for Ki: KOR Binding (Ki), whole rat brain excluding cerebellum, [3H]U69,593, Ki ± SEM
T3 construct: Frozen whole rat brains excluding cerebellum were thawed on ice; from tissue; host or cells: whole rat brain excluding cerebellum, membrane homogenate

rat MOR = molecular target: T4, rat MOR (Rattus norvegicus, UniProt P33535); assay: Stimulation of [35S]GTPγS binding, C6 glioma cell membranes expressing MOR; assay type: biochemical; conditions: for MOR activity type in the [35S]GTPγS assay: antagonist activity assumed from high MOR affinity and lack of stimulation; for MOR % Stimulation, [35S]GTPγS: compared to standard maximal DAMGO
T4 construct: expressed in transfected cells; host or cells: C6 rat glioma cells, stably transfected; membranes

rat DOR = molecular target: T5, rat DOR (Rattus norvegicus, UniProt P33533); assay: Stimulation of [35S]GTPγS binding, C6 glioma cell membranes expressing DOR; assay type: biochemical; conditions: for EC50: DOR EC50, [35S]GTPγS, C6 cells expressing DOR, mean ± SEM; for DOR % Stimulation, [35S]GTPγS: compared to standard maximal DPDPE
T5 construct: expressed in transfected cells; host or cells: C6 rat glioma cells, stably transfected; membranes

[1] = molecular target: T6, human μ-opioid receptor (OPRM1) (Homo sapiens, UniProt P35372); assay: cell-based; conditions: for EC50: MOR cAMP Agonist Potency ± SEM; for Emax: OPRM1, read-out: MOR cAMP % Efficacy
T6 construct: host or cells: HitHunter CHO-K1 cells

[2] = molecular target: T7, human δ-receptor (OPRMD1) (Homo sapiens, UniProt P41143); assay: cell-based; assay type: cell-based; conditions: for Emax: CHO-K1, read-out: DOR cAMP % Efficacy; for EC50: DOR cAMP Agonist Potency ± SEM
T7 construct: host or cells: HitHunter CHO-K1 cells

[3] = molecular target: T8, human κ-opioid receptor (OPRK1) (Homo sapiens, UniProt P41145); assay: cell-based; conditions: for Emax: CHO-K1, read-out: KOR cAMP % Efficacy; for EC50: KOR cAMP Agonist Potency ± SEM
T8 construct: host or cells: HitHunter CHO-K1 cells

[4] = molecular target: T9, human μ-opioid receptor β-arrestin-2 (Homo sapiens, UniProt P35372); assay: cell-based; conditions: for Emax: read-out: MOR Mediated β-arrestin Recruitment (% Control, Emax DAMGO)
T9 construct: enzyme fragment for EFC (β-galactosidase ProLink fragment, by own knowledge of the PathHunter system); host or cells: PathHunter CHO cells

squirrel monkeys [5] = assay: Warm-water tail-withdrawal latency in squirrel monkeys; assay type: in vivo, Saimiri sciureus; conditions: for ED50: Saimiri, in Primates; for Antinociceptive effect, tail withdrawal latency at 50, 52 and 55 °C: cumulative doses
[6] = Squirrel monkey ventilation (whole-body plethysmograph, air or 5% CO2); assay type: in vivo, Saimiri sciureus; conditions: male, monkey, in vivo, other: injection; squirrel monkeys; dose required to decrease minute volume in 5% CO2 to 50% of baseline; read-out: ED50 Respiratory Depression
Experimental: (§1) Gas (either air or a 5% CO2 in air mixture) was introduced to and extracted from the chamber at a constant flow rate of 5 L/min. Experimental sessions consisted of 4–6 consecutive 30 min cycles, each comprising a 15 min exposure to air followed by a 15 min exposure to 5% CO2. Drug effects were determined using cumulative dosing procedures, and injections were administered following each exposure to 5% CO2. Respiratory rate and tidal volume (mL/breath) were recorded over 1 min periods and were multiplied to provide minute volumes. Data from the last three minutes of each exposure to air or CO2 were averaged and used for analysis of drug effects on ventilation.

squirrel monkeys [7] = assay: as above; assay type: in vivo, Saimiri sciureus
Experimental: as §1

[8] = Operant responding (FR10 food reinforcement) in squirrel monkeys; conditions: male, monkey, in vivo
squirrel monkeys [9] = assay: as above; conditions: squirrel monkeys
Swiss Webster mice = assay: Respiration rate and arterial oxygen saturation in mice (MouseOx pulse oximeter); conditions: for Effect on oxygen saturation (SpO2) in mice: 6 min to 45 min post-injection, data not shown; for Effect on respiration rate in mice: normal air, s.c., 2i 0.01–0.1 mg/kg, morphine 10 mg/kg, AUC 6–45 min post injection, vs saline
human KOR = molecular target: T10, human KOR (Homo sapiens, UniProt P41145); assay: Stimulation of [35S]GTPγS binding, CHO cell membranes expressing KOR; assay type: biochemical; conditions: CHO cells expressing KOR; mean ± SEM; DNS = no stimulation
T10 construct: expressed in transfected cells; membranes

[10] = dose required to increase tail withdrawal latency to 5 s, read-out: ED50 Antinociception (52 °C)

T5 sequence (P33533 whole entry): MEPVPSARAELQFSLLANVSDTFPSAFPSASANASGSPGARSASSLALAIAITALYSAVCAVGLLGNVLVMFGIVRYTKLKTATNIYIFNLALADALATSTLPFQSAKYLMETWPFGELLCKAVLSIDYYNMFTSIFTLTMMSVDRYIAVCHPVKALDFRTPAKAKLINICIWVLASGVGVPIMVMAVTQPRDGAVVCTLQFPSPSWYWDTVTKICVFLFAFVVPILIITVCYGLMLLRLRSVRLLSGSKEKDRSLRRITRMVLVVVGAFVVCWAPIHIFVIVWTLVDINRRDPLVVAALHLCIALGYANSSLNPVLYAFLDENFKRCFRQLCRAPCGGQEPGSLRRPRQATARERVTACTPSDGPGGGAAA
T2 sequence (P33533 whole entry): as above
T8 sequence (P41145 whole entry): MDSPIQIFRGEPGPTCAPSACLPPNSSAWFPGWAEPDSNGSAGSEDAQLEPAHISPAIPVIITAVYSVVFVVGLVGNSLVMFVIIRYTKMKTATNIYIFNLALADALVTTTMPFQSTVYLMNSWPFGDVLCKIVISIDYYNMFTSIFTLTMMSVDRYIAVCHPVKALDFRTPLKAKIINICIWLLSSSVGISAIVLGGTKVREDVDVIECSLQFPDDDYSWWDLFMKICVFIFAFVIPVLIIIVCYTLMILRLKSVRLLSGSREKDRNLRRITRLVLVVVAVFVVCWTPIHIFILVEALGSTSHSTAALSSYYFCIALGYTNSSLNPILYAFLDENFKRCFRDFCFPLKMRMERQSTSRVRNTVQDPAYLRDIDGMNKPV
T10 sequence (P41145 whole entry): as above
T9 sequence (P35372 whole entry, the tested form may be a part): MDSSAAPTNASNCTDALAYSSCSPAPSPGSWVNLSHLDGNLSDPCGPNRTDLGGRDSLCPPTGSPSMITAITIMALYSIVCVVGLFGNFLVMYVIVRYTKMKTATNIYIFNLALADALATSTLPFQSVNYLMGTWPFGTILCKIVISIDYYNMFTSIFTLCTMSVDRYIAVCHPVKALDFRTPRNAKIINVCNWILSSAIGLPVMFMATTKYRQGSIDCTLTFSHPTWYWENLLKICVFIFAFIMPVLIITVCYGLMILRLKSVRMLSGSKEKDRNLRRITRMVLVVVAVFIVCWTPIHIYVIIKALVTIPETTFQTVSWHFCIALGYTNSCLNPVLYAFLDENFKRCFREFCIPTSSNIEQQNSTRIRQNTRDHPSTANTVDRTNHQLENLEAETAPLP
T6 sequence (P35372 whole entry): as the sequence (P35372 whole entry, the tested form may be a part) above
T3 sequence (P34975 whole entry): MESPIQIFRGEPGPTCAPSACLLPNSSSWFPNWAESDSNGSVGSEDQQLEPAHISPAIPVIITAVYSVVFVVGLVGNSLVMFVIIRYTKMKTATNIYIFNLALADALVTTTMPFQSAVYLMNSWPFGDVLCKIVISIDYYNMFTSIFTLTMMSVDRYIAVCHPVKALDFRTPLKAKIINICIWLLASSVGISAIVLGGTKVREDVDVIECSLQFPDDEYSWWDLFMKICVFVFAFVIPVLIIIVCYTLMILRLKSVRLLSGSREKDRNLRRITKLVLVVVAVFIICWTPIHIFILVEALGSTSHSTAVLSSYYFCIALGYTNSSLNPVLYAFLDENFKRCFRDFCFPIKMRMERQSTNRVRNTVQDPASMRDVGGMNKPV
T4 sequence (P33535 whole entry): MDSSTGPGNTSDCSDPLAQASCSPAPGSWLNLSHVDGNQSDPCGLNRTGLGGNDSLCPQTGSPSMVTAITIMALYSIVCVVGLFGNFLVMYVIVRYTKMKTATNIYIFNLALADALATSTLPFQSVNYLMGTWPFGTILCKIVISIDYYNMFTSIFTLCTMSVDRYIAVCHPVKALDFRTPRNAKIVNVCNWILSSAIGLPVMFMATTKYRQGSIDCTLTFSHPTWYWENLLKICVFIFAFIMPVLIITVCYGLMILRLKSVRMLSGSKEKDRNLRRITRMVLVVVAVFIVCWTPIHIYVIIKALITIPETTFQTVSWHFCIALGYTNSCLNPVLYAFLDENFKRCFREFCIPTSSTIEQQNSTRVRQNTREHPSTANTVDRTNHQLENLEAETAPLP
T1 sequence (P33535 whole entry): as above
T7 sequence (P41143 whole entry): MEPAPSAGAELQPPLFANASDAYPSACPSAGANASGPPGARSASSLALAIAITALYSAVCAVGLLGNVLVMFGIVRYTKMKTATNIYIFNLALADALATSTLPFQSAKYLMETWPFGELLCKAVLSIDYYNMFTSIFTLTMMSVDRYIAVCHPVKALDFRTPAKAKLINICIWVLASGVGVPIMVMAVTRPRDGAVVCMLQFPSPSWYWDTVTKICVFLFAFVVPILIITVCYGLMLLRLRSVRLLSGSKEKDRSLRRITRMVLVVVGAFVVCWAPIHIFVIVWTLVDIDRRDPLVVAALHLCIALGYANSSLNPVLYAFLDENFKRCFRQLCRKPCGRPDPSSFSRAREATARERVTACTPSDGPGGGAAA

SMILES | Ki (μ-opioid receptor (MOR)) [nM] | Ki (δ-opioid receptor (DOR)) [nM] | EC50 (rat MOR) [nM] | MOR activity type in the [35S]GTPγS assay (rat MOR) | MOR % Stimulation, [35S]GTPγS (rat MOR) [%] | DOR activity type in the [35S]GTPγS assay (rat DOR) | EC50 (rat DOR) [nM] | DOR % Stimulation, [35S]GTPγS (rat DOR) [%] | EC50 [1] [nM] | Emax [1] [%] | Emax [2] [%] | EC50 [2] [nM] | Emax [3] [%] | EC50 [3] | Bias Factor [4] | EC50 [4] [nM] | Emax [4] [%] | ED50 (squirrel monkeys [5]; [10]) [mg/kg] | Ki (κ-opioid receptor (KOR)) [nM] | KOR EC50, [35S]GTPγS (human KOR) | also measured
O=C1CCC2C3Cc4ccc(O)c5c4[C@@]2(CCN3CCc2ccc(Cl)cc2)[C@H]1O5 (stereo partly drawn) [Compound 2i, (7aR,12bS)-3-(4-Chlorophenethyl)-9-hydroxy-2,3,4,4a,5,6-hexahydro-1H-4,12-methanobenzofuro[3,2-e]-isoquinolin-7(7aH)-one] | 1.09 ± 0.06 | 7.89 ± 1.1 | 2 ± 1 | potent partial MOR agonist | 39.0 ± 2.1 | potent full DOR agonist | 2.4 ± 0.7 | 83.8 ± 3.7 | 0.05 | 98.8 | 84.8 | 0.53 | 76.6 | 55 nM and 55.2 nM | 0.82 | 2.44 | 44.8 | 0.015 | – | – | δ/μ ratio in opioid receptor binding studies (δ-opioid receptor (DOR); DOR Ki / MOR Ki): about 7; KOR Binding, exploratory binding assay (κ-opioid receptor (KOR); radioligand displacement at 100 nM): NT (NT = not tested—inactive (<50% activity at 100 nM concentration in exploratory binding assays (displaced less than half of radioligand)); EC50 δ/μ ratio in the cAMP assay [2]: 10; ED50 (squirrel monkeys [5]; read-out: ED50 Antinociception (50 °C), tail withdrawal, 50 °C water): 0.01 mg/kg; Antinociceptive effect, tail withdrawal latency at 50, 52 and 55 °C (squirrel monkeys [5]): full effect at moderate (50 °C) and hot (52 °C) but not at very hot (55 °C) water temperatures; ED50 [6]: 0.057 mg/kg; Effect on ventilation (minute volume) during exposure to 5% CO2 mixed in air (hypercapnia) (squirrel monkeys [7]): significantly reduced minute volume in 5% CO2; also recorded: respiration was depressed; also recorded: significantly decreased ventilation; Effect on respiratory rate or ventilation (minute volume) during exposure to air alone (squirrel monkeys [7]; 2i 0.003–0.1 mg/kg, morphine 0.03–3.0 mg/kg): did not depress respiration; also recorded: neither 2i (0.003–0.1 mg/kg) nor morphine (0.03–3.0 mg/kg) had effects; ED50 [8]: 0.022 mg/kg; Behavioral impairment (decreases in operant performance, reinforcers obtained) (squirrel monkeys [9]): dose-related behavioral impairment; Effect on oxygen saturation (SpO2) in mice (Swiss Webster mice): neither morphine nor 2i had any effect; Effect on respiration rate in mice (Swiss Webster mice): did not depress respiration rate; also recorded: no effect on respiration rate
CN1CC[C@]23c4c5ccc(O)c4O[C@H]2[C@@H](O)C=C[C@H]3[C@H]1C5 [Morphine, reference compound] | – | – | – | – | – | – | – | – | – | – | – | – | – | – | – | – | – | 0.14 | – | – | Antinociceptive effect, tail withdrawal latency at 50, 52 and 55 °C (squirrel monkeys [5]): full antinociceptive effects at all three water temperatures; ED50 [6]: 1.06 mg/kg; ED50 [8]: 1.3 mg/kg; Behavioral impairment (decreases in operant performance, reinforcers obtained) (squirrel monkeys [9]): dose-related behavioral impairment; Effect on oxygen saturation (SpO2) in mice (Swiss Webster mice): neither morphine nor 2i had any effect; Effect on respiration rate in mice (Swiss Webster mice): significantly reduced respiratory rate; Effect on respiration rate in mice (Swiss Webster mice; listed as morphine): significantly reduced; also recorded: significantly decreased respiratory rate
O=C1CCC2C3Cc4ccc(O)c5c4[C@@]2(CCN3CCc2ccccc2F)[C@H]1O5 (stereo partly drawn) [Compound 2g, (7aR,12bS)-9-Hydroxy-3-(2-fluorophenethyl)-2,3,4,4a,5,6-hexahydro-1H-4,12-methanobenzofuro[3,2-e]-isoquinolin-7(7aH)-one] | 0.32 ± 0.04 | 3.57 ± 0.49 | 2.1 ± 0.7 | – | 100 ± 0.3 | – | 92.7 ± 17 | 83.0 ± 3.3 | 0.01 | 101 | 93.8 | 0.26 | 74 | 19.9 nM | 1.37 | 1.7 | 73.2 | – | 23.2 ± 2.8 | DNS | –
O=C1CCC2C3Cc4ccc(O)c5c4[C@@]2(CCN3CCc2cccc(F)c2)[C@H]1O5 (stereo partly drawn) [Compound 2f, (7aR,12bS)-9-Hydroxy-3-(3-fluorophenethyl)-2,3,4,4a,5,6-hexahydro-1H-4,12-methanobenzofuro[3,2-e]-isoquinolin-7(7aH)-one] | 0.49 ± 0.07 | 4.48 ± 0.43 | 2.4 ± 0.3 | – | 56.8 ± 7.5 | – | 54.1 ± 4.7 | 86.7 ± 8.0 | 0.06 | 102 | 96.9 | 1.64 | 58 | 56.5 nM | 1.94 | 6.2 | 40.3 | – | 30.2 ± 2.3 | DNS | –
O=C1CCC2C3Cc4ccc(O)c5c4[C@@]2(CCN3CCc2ccc(F)cc2)[C@H]1O5 (stereo partly drawn) [Compound 2e, (7aR,12bS)-9-Hydroxy-3-(4-fluorophenethyl)-2,3,4,4a,5,6-hexahydro-1H-4,12-methanobenzofuro[3,2-e]-isoquinolin-7(7aH)-one] | 0.87 ± 0.1 | 13.4 ± 0.9 | 2.5 ± 0.3 | potent partial MOR agonist | 42.6 ± 2.9 | weak partial DOR agonist | 64.2 ± 9.9 | – | 0.17 | 101 | 98.1 | 2.58 | 80 | 19.9 nM | 1.39 | 15.5 | 45.8 | – | 44.3 ± 6 | DNS | –
